Measured values taken from patent US9981959B2, “Thiazolyl and oxazolyl urea, thiourea, guanidine and cyanoguanidine compounds as TrkA kinase inhibitors” (Array BioPharma Inc., priority 2012, dated 2018).

Assays:
Experiment in all cases: KinaseProfiler off-target kinase profiling
Type in all cases: biochemical
Conditions in all cases: 10 μM, ATP near Km
EphA5 = biological target: T1, EphA5 (Homo sapiens, UniProt P54756)
T1 construct: purchased Millipore, Inc. (KinaseProfiler service)
Summary of the method: (§1)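 Compound was screened once at 10 μM against the full commercial kinase panel. ATP was held near each kinase's Km, duplicates were run, and activity was expressed as average percent of control.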

PDGFRalpha = biological target: T2, PDGFRalpha (Homo sapiens, UniProt P16234)
T2 construct: purchased Millipore, Inc. (KinaseProfiler service)
Summary of the method: as §1

AKT1 = biological target: T3, AKT1 (Homo sapiens, UniProt P31749)
T3 construct: purchased Millipore (KinaseProfiler service)
Summary of the method: as §1

MAP4K2 = biological target: T4, MAP4K2 (Homo sapiens, UniProt Q12851)
T4 construct: purchased Millipore, Inc. (KinaseProfiler service)
Summary of the method: as §1

FGFR1 = biological target: T5, FGFR1 (Homo sapiens, UniProt P11362)
T5 construct: purchased Millipore, Inc. (KinaseProfiler service)
Summary of the method: as §1

MKK4_m = biological target: T6, MKK4_m (Mus musculus, UniProt P47809)
T6 construct: purchased Millipore, Inc. (KinaseProfiler service)
T6 sequence (P47809 whole entry): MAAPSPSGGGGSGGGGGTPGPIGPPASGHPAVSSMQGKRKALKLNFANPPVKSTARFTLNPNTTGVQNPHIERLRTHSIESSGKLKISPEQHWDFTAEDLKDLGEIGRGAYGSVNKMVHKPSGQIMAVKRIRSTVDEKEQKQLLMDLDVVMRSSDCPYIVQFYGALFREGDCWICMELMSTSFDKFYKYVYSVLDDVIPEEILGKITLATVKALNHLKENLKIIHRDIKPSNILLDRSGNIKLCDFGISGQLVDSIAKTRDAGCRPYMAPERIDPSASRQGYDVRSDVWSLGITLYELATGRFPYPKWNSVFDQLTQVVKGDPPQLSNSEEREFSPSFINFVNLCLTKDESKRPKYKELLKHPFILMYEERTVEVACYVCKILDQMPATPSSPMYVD
Summary of the method: as §1

SRC = biological target: T7, SRC (Homo sapiens, UniProt P12931)
T7 construct: purchased Millipore, Inc. (KinaseProfiler service)
Summary of the method: as §1

CDK2/cyclinE = biological target: T8, CDK2/cyclinE (Homo sapiens, UniProt P24941)
T8 construct: purchased Millipore, Inc. (KinaseProfiler service)
Summary of the method: as §1

PhKgamma2 = biological target: T9, PhKgamma2 (Homo sapiens, UniProt P15735)
T9 construct: purchased Millipore, Inc. (KinaseProfiler service)
Summary of the method: as §1

Yes = biological target: T10, Yes (Homo sapiens, UniProt P07947)
T10 construct: purchased Millipore, Inc. (KinaseProfiler service)
Summary of the method: as §1

PDK1 = biological target: T11, PDK1 (Homo sapiens, UniProt O15530)
T11 construct: purchased Millipore, Inc. (KinaseProfiler service)
Summary of the method: as §1

Rsk4 = biological target: T12, Rsk4 (Homo sapiens, UniProt Q9UK32)
T12 construct: purchased Millipore, Inc. (KinaseProfiler service)
T12 sequence (Q9UK32 whole entry): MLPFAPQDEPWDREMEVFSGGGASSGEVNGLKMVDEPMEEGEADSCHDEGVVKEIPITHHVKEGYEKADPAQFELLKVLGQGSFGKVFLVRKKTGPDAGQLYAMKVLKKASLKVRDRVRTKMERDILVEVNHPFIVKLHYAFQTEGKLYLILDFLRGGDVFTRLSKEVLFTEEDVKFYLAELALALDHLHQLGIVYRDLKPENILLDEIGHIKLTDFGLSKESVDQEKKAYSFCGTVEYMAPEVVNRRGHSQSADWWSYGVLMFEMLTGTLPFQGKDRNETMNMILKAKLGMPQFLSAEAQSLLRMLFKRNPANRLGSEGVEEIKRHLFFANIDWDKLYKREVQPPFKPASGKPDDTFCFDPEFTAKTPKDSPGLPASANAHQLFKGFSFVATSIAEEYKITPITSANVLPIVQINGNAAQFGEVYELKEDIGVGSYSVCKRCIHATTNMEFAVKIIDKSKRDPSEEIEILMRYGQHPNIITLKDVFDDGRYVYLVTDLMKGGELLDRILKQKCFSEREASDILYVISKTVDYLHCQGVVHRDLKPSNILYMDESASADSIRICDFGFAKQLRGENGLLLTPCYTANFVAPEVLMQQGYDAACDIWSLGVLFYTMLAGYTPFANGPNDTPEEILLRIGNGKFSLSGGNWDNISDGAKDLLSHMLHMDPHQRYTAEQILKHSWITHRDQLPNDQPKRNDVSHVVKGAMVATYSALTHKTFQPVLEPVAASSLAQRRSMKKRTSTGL
Summary of the method: as §1

TSSK2 = biological target: T13, TSSK2 (Homo sapiens, UniProt Q96PF2)
T13 construct: purchased Millipore, Inc. (KinaseProfiler service)
Summary of the method: as §1

PASK = biological target: T14, PASK (Homo sapiens, UniProt Q96RG2)
T14 construct: purchased Millipore, Inc. (KinaseProfiler service)
Summary of the method: as §1

SGK3 = biological target: T15, SGK3 (Homo sapiens, UniProt Q96BR1)
T15 construct: purchased Millipore, Inc. (KinaseProfiler service)
Summary of the method: as §1

FAK = biological target: T16, FAK (Homo sapiens, UniProt Q05397)
T16 construct: purchased Millipore, Inc. (KinaseProfiler service)
T16 sequence (Q05397 whole entry): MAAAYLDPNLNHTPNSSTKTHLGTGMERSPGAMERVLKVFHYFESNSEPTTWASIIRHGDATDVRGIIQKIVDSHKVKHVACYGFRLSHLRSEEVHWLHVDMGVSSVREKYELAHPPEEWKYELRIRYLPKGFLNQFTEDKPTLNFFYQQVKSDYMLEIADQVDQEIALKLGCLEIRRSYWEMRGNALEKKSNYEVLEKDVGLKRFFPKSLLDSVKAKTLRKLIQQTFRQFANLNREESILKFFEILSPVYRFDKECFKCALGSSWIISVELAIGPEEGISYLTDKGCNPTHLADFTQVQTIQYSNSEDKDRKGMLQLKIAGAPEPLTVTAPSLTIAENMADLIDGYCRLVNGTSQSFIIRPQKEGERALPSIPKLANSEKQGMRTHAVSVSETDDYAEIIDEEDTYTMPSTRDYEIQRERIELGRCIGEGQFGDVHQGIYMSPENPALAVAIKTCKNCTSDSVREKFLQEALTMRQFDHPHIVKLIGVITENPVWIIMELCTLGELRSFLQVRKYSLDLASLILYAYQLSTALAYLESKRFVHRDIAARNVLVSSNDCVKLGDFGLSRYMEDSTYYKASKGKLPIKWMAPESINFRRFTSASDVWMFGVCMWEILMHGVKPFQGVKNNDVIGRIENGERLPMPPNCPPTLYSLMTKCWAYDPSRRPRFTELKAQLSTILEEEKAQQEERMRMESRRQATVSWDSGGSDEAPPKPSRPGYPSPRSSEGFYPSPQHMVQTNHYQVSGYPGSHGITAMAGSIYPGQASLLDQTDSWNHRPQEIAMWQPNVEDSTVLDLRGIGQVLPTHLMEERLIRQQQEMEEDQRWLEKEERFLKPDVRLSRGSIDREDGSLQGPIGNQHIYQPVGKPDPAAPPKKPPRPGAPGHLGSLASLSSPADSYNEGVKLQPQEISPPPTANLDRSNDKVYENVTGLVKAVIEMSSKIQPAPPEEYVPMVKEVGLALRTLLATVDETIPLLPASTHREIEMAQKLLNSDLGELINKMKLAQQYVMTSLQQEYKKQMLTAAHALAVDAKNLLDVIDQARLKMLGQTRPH
Summary of the method: as §1

FGFR2 = biological target: T17, FGFR2 (Homo sapiens, UniProt P21802)
T17 construct: purchased Millipore, Inc. (KinaseProfiler service)
Summary of the method: as §1

CDK5/p25 = biological target: T18, CDK5/p25 (Homo sapiens, UniProt Q00535)
T18 construct: purchased Millipore, Inc. (KinaseProfiler service)
T18 sequence (Q00535 whole entry): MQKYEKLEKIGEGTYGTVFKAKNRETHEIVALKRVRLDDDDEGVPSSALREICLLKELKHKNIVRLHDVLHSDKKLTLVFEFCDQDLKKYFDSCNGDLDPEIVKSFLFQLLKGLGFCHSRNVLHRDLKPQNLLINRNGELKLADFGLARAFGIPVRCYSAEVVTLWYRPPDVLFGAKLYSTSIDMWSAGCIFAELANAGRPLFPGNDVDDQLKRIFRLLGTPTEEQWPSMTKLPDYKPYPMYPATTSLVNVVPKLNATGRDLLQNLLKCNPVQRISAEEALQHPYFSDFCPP
T18 sequence (Q15078 99-307 partner limits assumed): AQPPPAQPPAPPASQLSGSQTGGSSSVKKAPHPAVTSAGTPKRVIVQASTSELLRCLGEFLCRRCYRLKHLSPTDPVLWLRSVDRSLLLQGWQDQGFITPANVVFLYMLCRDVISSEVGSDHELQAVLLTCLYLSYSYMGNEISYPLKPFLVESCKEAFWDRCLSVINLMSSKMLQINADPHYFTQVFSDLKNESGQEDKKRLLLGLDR
Summary of the method: as §1

Haspin = biological target: T19, Haspin (Homo sapiens, UniProt Q8TF76)
T19 construct: purchased Millipore, Inc. (KinaseProfiler service)
T19 sequence (Q8TF76 whole entry): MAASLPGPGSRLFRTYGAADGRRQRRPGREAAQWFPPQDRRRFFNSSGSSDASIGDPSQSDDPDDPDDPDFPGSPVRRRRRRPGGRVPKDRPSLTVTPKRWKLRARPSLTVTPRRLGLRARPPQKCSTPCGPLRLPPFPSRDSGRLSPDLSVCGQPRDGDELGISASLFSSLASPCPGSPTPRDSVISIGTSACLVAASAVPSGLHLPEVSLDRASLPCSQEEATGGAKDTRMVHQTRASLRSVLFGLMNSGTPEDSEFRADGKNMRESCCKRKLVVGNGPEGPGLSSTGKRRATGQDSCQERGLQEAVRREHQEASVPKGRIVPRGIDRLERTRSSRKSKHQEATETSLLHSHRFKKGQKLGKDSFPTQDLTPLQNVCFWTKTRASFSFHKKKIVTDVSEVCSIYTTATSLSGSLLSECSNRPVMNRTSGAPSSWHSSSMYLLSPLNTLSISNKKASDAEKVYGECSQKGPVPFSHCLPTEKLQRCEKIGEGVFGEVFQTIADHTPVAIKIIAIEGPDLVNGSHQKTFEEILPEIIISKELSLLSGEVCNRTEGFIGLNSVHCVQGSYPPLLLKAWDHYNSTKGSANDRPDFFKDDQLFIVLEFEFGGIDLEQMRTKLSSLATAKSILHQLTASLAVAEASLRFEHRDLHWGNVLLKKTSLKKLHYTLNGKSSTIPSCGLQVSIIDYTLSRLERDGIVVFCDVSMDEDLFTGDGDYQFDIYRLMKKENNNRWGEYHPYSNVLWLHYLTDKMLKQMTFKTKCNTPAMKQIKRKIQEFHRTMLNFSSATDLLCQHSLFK
Summary of the method: as §1

DAPK1 = biological target: T20, DAPK1 (Homo sapiens, UniProt P53355)
T20 construct: purchased Millipore, Inc. (KinaseProfiler service)
Summary of the method: as §1

Fyn = biological target: T21, Fyn (Homo sapiens, UniProt P06241)
T21 construct: purchased Millipore, Inc. (KinaseProfiler service)
Summary of the method: as §1

IKKalpha = biological target: T22, IKKalpha (Homo sapiens, UniProt O15111)
T22 construct: purchased Millipore, Inc. (KinaseProfiler service)
Summary of the method: as §1

c-RAF = biological target: T23, c-RAF (Homo sapiens, UniProt P04049, Y340D/Y341D)
T23 construct: purchased Millipore, Inc. (KinaseProfiler service)
Summary of the method: as §1

EphA1 = biological target: T24, EphA1 (Homo sapiens, UniProt P21709)
T24 construct: purchased Millipore, Inc. (KinaseProfiler service)
Summary of the method: as §1

Rsk2 = biological target: T25, Rsk2 (Homo sapiens, UniProt P51812)
T25 construct: purchased Millipore, Inc. (KinaseProfiler service)
Summary of the method: as §1

mTOR/FKBP12 = biological target: T26, mTOR/FKBP12 (Homo sapiens, UniProt P42345)
T26 construct: purchased Millipore, Inc. (KinaseProfiler service)
Summary of the method: as §1

Plk1 = biological target: T27, Plk1 (Homo sapiens, UniProt P53350)
T27 construct: purchased Millipore, Inc. (KinaseProfiler service)
Summary of the method: as §1

PKD1 = biological target: T28, PKD1 (Homo sapiens, UniProt Q15139)
T28 construct: purchased Millipore, Inc. (KinaseProfiler service)
Summary of the method: as §1

RIPK2 = biological target: T29, RIPK2 (Homo sapiens, UniProt O43353)
T29 construct: purchased Millipore, Inc. (KinaseProfiler service)
Summary of the method: as §1

Plk2 = biological target: T30, Plk2 (Homo sapiens, UniProt Q9NYY3)
T30 construct: purchased Millipore, Inc. (KinaseProfiler service)
Summary of the method: as §1

IRAK1 = biological target: T31, IRAK1 (Homo sapiens, UniProt P51617)
T31 construct: purchased Millipore, Inc. (KinaseProfiler service)
T31 sequence (P51617 whole entry): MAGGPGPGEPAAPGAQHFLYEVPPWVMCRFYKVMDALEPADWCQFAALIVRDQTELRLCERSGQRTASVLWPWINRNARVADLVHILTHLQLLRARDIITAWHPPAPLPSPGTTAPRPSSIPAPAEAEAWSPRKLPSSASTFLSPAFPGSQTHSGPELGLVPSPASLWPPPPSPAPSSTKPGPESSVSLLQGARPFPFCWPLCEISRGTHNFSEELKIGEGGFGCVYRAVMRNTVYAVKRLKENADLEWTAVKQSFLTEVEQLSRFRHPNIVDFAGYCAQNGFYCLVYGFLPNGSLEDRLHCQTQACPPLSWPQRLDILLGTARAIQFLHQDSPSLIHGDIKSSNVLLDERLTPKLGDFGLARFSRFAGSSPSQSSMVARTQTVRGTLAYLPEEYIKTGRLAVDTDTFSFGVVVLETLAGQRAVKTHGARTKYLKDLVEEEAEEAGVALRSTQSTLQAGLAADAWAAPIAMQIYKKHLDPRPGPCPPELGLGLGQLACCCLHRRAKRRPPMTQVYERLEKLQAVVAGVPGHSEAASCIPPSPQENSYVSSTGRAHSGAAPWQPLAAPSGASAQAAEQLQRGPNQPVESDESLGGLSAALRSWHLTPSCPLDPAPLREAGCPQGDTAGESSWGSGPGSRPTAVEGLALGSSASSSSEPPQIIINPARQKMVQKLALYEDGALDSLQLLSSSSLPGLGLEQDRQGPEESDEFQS
Summary of the method: as §1

CDK5/p35 = biological target: T32, CDK5/p35 (Homo sapiens, UniProt Q00535)
T32 construct: purchased Millipore, Inc. (KinaseProfiler service)
T32 sequence (Q00535 whole entry): as the sequence (Q00535 whole entry) above
T32 sequence (Q15078 whole entry partner): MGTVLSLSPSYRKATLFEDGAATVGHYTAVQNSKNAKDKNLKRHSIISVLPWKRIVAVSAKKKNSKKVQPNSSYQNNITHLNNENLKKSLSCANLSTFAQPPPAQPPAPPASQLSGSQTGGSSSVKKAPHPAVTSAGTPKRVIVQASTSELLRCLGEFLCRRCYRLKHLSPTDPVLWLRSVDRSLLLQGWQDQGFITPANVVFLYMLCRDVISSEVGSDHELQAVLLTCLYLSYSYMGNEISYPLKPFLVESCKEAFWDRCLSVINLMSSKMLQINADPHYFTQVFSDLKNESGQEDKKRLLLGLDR
Summary of the method: as §1

CHK1 = biological target: T33, CHK1 (Homo sapiens, UniProt O14757)
T33 construct: purchased Millipore, Inc. (KinaseProfiler service)
Summary of the method: as §1

ULK3 = biological target: T34, ULK3 (Homo sapiens, UniProt Q6PHR2)
T34 construct: purchased Millipore, Inc. (KinaseProfiler service)
Summary of the method: as §1

MAPKAP-K2 = biological target: T35, MAPKAP-K2 (Homo sapiens, UniProt P49137)
T35 construct: purchased Millipore, Inc. (KinaseProfiler service)
Summary of the method: as §1

EphA4 = biological target: T36, EphA4 (Homo sapiens, UniProt P54764)
T36 construct: purchased Millipore, Inc. (KinaseProfiler service)
Summary of the method: as §1

p38gamma = biological target: T37, p38gamma (Homo sapiens, UniProt P53778)
T37 construct: purchased Millipore, Inc. (KinaseProfiler service)
Summary of the method: as §1

Fgr = biological target: T38, Fgr (Homo sapiens, UniProt P09769)
T38 construct: purchased Millipore, Inc. (KinaseProfiler service)
Summary of the method: as §1

Fes = biological target: T39, Fes (Homo sapiens, UniProt P07332)
T39 construct: purchased Millipore, Inc. (KinaseProfiler service)
Summary of the method: as §1

CDK1/cyclinB = biological target: T40, CDK1/cyclinB (Homo sapiens, UniProt P06493)
T40 construct: purchased Millipore (KinaseProfiler service)
Summary of the method: as §1

PKCdelta = biological target: T41, PKCdelta (Homo sapiens, UniProt Q05655)
T41 construct: purchased Millipore, Inc. (KinaseProfiler service)
Summary of the method: as §1

Cc1c(-c2cnn(C)c2)nn(-c2ccccc2)c1NC(=O)Nc1sc(C(F)(F)F)nc1-c1ccccc1 [Example 2, 1-(1′,4-dimethyl-1-phenyl-1H,1′H-[3,4′-bipyrazol]-5-yl)-3-(4-phenyl-2-(trifluoromethyl)thiazol-5-yl)urea]
Avg POC (EphA5): 118.5 POC | Avg POC (PDGFRalpha): 102.5 POC | Avg POC (AKT1): 133 POC | Avg POC (MAP4K2): 121.5 POC | Avg POC (FGFR1): 80.5 POC | Avg POC (MKK4_m): 73.5 POC | Avg POC (SRC): 110.5 POC | Avg POC (CDK2/cyclinE): 100 POC | Avg POC (PhKgamma2): 108 POC | Avg POC (Yes): 128.5 POC | Avg POC (PDK1): 115 POC | Avg POC (Rsk4): 98 POC | Avg POC (TSSK2): 142.5 POC | Avg POC (PASK): 113 POC | Avg POC (SGK3): 151 POC | Avg POC (FAK): 106 POC | Avg POC (FGFR2): 116.5 POC | Avg POC (CDK5/p25): 104.5 POC | Avg POC (Haspin): 112.5 POC | Avg POC (DAPK1): 126.5 POC | Avg POC (Fyn): 105.5 POC | Avg POC (IKKalpha): 133 POC | Avg POC (c-RAF): 96.5 POC | Avg POC (EphA1): 81.5 POC | Avg POC (Rsk2): 131 POC | Avg POC (mTOR/FKBP12): 103 POC | Avg POC (Plk1): 103.5 POC | Avg POC (PKD1): 97.5 POC | Avg POC (RIPK2): 98 POC | Avg POC (Plk2): 99 POC | Avg POC (IRAK1): 107.5 POC | Avg POC (CDK5/p35): 111 POC | Avg POC (CHK1): 126.5 POC | Avg POC (ULK3): 90 POC | Avg POC (MAPKAP-K2): 143.5 POC | Avg POC (EphA4): 109 POC | Avg POC (p38gamma): 105 POC | Avg POC (Fgr): 128 POC | Avg POC (Fes): 121.5 POC | Avg POC (CDK1/cyclinB): 106 POC | Avg POC (PKCdelta): 97 POC
